Structures are written as SMILES.

The results in this text go back to patent US10399978B2, “Imidazopyridine thioglycolic acid derivatives as potent inhibitors of human urate transporter 1” (SHANDONG UNIVERSITY, priority 2016, dated 2019).

In series [1] the test system is mice with acute hyperuricemia. Description: In vivo activity of reducing serum uric acid (acute hyperuricemia induced with xanthine and potassium oxonate). Particulars: for BUA (blood uric acid concentration): hyperuricemic Kunming mice; for anti-gout activity, compared with positive control benzbromarone: batch 1, conclusion from Table 2. Also noted: species or system Kunming mice. The procedure: All newly synthesized target compounds were primarily evaluated for their activities of reducing blood uric acid in vivo (mice). Benzbromarone and lesinurad were selected as positive control drugs.
Example 46. In Vivo Activity of Reducing Serum Uric Acid
• (1) Experimental animal: Kunming mice, provided by Experimental Animal Center of Shandong University • (2) Preparation of compounds: Compounds were dissolved in ethanol and CMC-Na. • (3) Modeling drugs: Xanthine and potassium oxonate • (4) Reference drugs: Benzbromarone and Lesinurad • (5) Test method: The model group consisted of mice with acute hyperuricemia induced with 0.2 mL xanthine intragastric injection and 0.2 mL potassium oxonate subcutaneous injection, and not treated with test compound.

Where [2] appears, read: batch 1, Model 1462.6 ± 194.3, Blank 377.2 ± 27.6.
Where [3] appears, read: batch 2, Model 576.5 ± 120.5, Blank 262 ± 43.6, Blank (CMC-Na) 286 ± 90.9.

Consider `CCOC(=O)CCCSc1nc2cccnc2n1-c1c(C)cc(C)cc1C` [Compound X2], for which, in series [1] (setting [2]), the “BUA (blood uric acid concentration)” value was 1107.7 ± 195.1 µM. Take `CCOC(=O)CCCSc1nc2ncccc2n1-c1ccc(C2CC2)c2ccccc12` [Compound T2]: the “BUA (blood uric acid concentration)” value in series [1] (setting [3]) was 334 ± 65.7 µM. As for `O=C(O)CSc1nc2cccnc2n1-c1ccc(C2CC2)c2ccccc12` [Compound Q5], the “BUA (blood uric acid concentration)” value in series [1] (setting [2]) is 824 ± 109.9 µM. For `CCOC(=O)CCCSc1nc2cccnc2n1-c1ccc(C2CC2)c2ccccc12` [Compound Q2], in series [1] (setting [2]), the “BUA (blood uric acid concentration)” value was determined as 1422.6 ± 194.4 µM. As for `CCOC(=O)C(C)Sc1nc2cccnc2n1-c1c(C)cc(C)cc1C` (centres unmarked) [Compound X3], the “BUA (blood uric acid concentration)” value in series [1] (setting [2]) was 983.2 ± 122.6 µM. Regarding `Cc1cc(C)c(-n2c(SCCCC(=O)O)nc3cccnc32)c(C)c1` [Compound X6], the “anti-gout activity, compared with positive control benzbromarone” value in series [1] was “significant anti-gout activity”. Moreover, the “BUA (blood uric acid concentration)” value in series [1] (setting [2]) was 655.2 ± 210.8 µM. `O=C(O)CSc1nc2ncccc2n1-c1ccc(C2CC2)c2ccccc12` [Compound T5]: in series [1] (setting [3]), the “BUA (blood uric acid concentration)” value is 342 ± 44.1 µM.

With `CCOC(=O)C(C)Sc1nc2cccnc2n1-c1cccc2ccccc12` (centres unmarked) [Compound M3], the “BUA (blood uric acid concentration)” value in series [1] (setting [2]) was found to be 1321.5 ± 183.5 µM. Regarding `O=C(O)CSc1nc2cccnc2n1-c1cccc2ccccc12` [Compound M5], the melting point fell in the range of 129 to 130 °C. For the same compound, in series [1] (setting [2]), the “BUA (blood uric acid concentration)” value was found to be 1307.5 ± 195.3 µM. For `CCOC(=O)C(C)Sc1nc2ncccc2n1-c1ccc(C2CC2)c2ccccc12` (centres unmarked) [Compound T3], the “BUA (blood uric acid concentration)” value in series [1] (setting [3]) turned out to be 339 ± 29.8 µM.

`CCOC(=O)C(C)(C)Sc1nc2cccnc2n1-c1ccc(C2CC2)c2ccccc12` [Compound Q4]: the “BUA (blood uric acid concentration)” value in series [1] (setting [2]) turned out to be 1328.2 ± 163.8 µM. As for `CCOC(=O)CSc1nc2cccnc2n1-c1ccc(C2CC2)c2ccccc12` [Compound Q1], the “BUA (blood uric acid concentration)” value in series [1] (setting [2]) came to 1344.75 ± 287.5 µM. The same measure, in the same setting: for `Cc1cc(C)c(-n2c(SC(C)(C)C(=O)O)nc3cccnc32)c(C)c1` [Compound X8] the value was 1288 ± 211.5 µM; for `CC(C)(Sc1nc2cccnc2n1-c1cccc2ccccc12)C(=O)O` [Compound M8], 1229 ± 150.2 µM. On to `CC(Sc1nc2ncccc2n1-c1ccc(C2CC2)c2ccccc12)C(=O)O` (centres unmarked) [Compound T7], for which, in series [1] (setting [3]), the “BUA (blood uric acid concentration)” value turned out to be 189.7 ± 67.8 µM. For `CC(Sc1nc2cccnc2n1-c1ccc(C2CC2)c2ccccc12)C(=O)O` (centres unmarked) [Compound Q7], the “BUA (blood uric acid concentration)” value in series [1] (setting [2]) was determined as 763.2 ± 248.7 µM. On to `O=C(O)CSc1nnc(Br)n1-c1ccc(C2CC2)c2ccccc12` [RDEA594, Lesinurad, reference compound], for which, in series [1] (setting [3]), the “BUA (blood uric acid concentration)” value stood at 409.5 ± 124.3 µM. Turning to `CCOC(=O)C(C)(C)Sc1nc2cccnc2n1-c1c(C)cc(C)cc1C` [Compound X4], the “anti-gout activity, compared with positive control benzbromarone” value in series [1] was “significant anti-gout activity”. Also, the “BUA (blood uric acid concentration)” value in series [1] (setting [2]) amounted to 689.2 ± 53.4 µM.

Take `CCc1oc2ccccc2c1C(=O)c1cc(Br)c(O)c(Br)c1` [Benzbromarone, reference compound]: the “BUA (blood uric acid concentration)” value in series [1] (setting [2]) was determined as 762.5 ± 30.3 µM. Take `CCOC(=O)CSc1nc2cccnc2n1-c1cccc2ccccc12` [Compound M1]: the melting point is 116.5 to 117 °C. In series [1] (setting [2]), the “BUA (blood uric acid concentration)” value was 1507.6 ± 229.2 µM. With `CC(Sc1nc2cccnc2n1-c1cccc2ccccc12)C(=O)O` (centres unmarked) [Compound M7], in series [1] (setting [2]), the “BUA (blood uric acid concentration)” value was 1307.2 ± 133.1 µM. For the compound `CC(C)(Sc1nc2cccnc2n1-c1ccc(C2CC2)c2ccccc12)C(=O)O` [Compound Q8], the “BUA (blood uric acid concentration)” value in series [1] (setting [2]) came out at 1448 ± 216.7 µM. Turning to `Cc1cc(C)c(-n2c(SC(C)C(=O)O)nc3cccnc32)c(C)c1` (centres unmarked) [Compound X7], the “anti-gout activity, compared with positive control benzbromarone” value in series [1] was “significant anti-gout activity”. For the same compound, the “BUA (blood uric acid concentration)” value in series [1] (setting [2]) was found to be 727.2 ± 150.7 µM.

On to `Cc1cc(C)c(-n2c(SCC(=O)O)nc3cccnc32)c(C)c1` [Compound X5], for which the “BUA (blood uric acid concentration)” value in series [1] (setting [2]) is 1310.2 ± 155.8 µM. Consider `CCOC(=O)CSc1nc2ncccc2n1-c1ccc(C2CC2)c2ccccc12` [Compound T1], for which the “BUA (blood uric acid concentration)” value in series [1] (setting [3]) came to 353.5 ± 35.6 µM. As to `O=C(O)CCCSc1nc2cccnc2n1-c1ccc(C2CC2)c2ccccc12` [Compound Q6], the “BUA (blood uric acid concentration)” value in series [1] (setting [2]) was determined as 1490.7 ± 269.9 µM. As for `CCOC(=O)CSc1nc2cccnc2n1-c1c(C)cc(C)cc1C` [Compound X1], in series [1] (setting [2]), the “BUA (blood uric acid concentration)” value stood at 1255.2 ± 184 µM. Regarding `CCOC(=O)C(C)Sc1nc2cccnc2n1-c1ccc(C2CC2)c2ccccc12` (centres unmarked) [Compound Q3], the “anti-gout activity, compared with positive control benzbromarone” value in series [1] is recorded as “significant anti-gout activity”. Also, the “BUA (blood uric acid concentration)” value in series [1] (setting [2]) was 672 ± 76.2 µM. Consider `CCOC(=O)C(C)(C)Sc1nc2ncccc2n1-c1ccc(C2CC2)c2ccccc12` [Compound T4], for which, in series [1] (setting [3]), the “BUA (blood uric acid concentration)” value was 306 ± 46.8 µM. With `O=C(O)CCCSc1nc2ncccc2n1-c1ccc(C2CC2)c2ccccc12` [Compound T6], the “BUA (blood uric acid concentration)” value in series [1] (setting [3]) is 330 ± 29.1 µM. With `O=C(O)CCCSc1nc2cccnc2n1-c1cccc2ccccc12` [Compound M6], the “BUA (blood uric acid concentration)” value in series [1] (setting [2]) amounted to 1342 ± 144.3 µM. On to `CC(C)(Sc1nc2ncccc2n1-c1ccc(C2CC2)c2ccccc12)C(=O)O` [Compound T8], for which the “BUA (blood uric acid concentration)” value in series [1] (setting [3]) amounted to 295.2 ± 54 µM. Turning to `CCOC(=O)C(C)(C)Sc1nc2cccnc2n1-c1cccc2ccccc12` [Compound M4], the “BUA (blood uric acid concentration)” value in series [1] (setting [2]) stood at 1363 ± 184.7 µM. `CCOC(=O)CCCSc1nc2cccnc2n1-c1cccc2ccccc12` [Compound M2]: the “anti-gout activity, compared with positive control benzbromarone” value in series [1] is “significant anti-gout activity”. The “BUA (blood uric acid concentration)” value in series [1] (setting [2]) is 634.7 ± 97.7 µM.
